1 compound from patent US20220023471A1, “PROCESS FOR DISINFECTION AND PROTECTING SURFACES FROM CONTAMINATION” (GERMINATOR MOBILE SANITIZING, LLC, priority 2020, published 2022) can be followed below.

Holding throughout (assay): Microorganism Efficacy Test (percent reduction in culture)
Common to all, as to assay type: cell-based

The test system of one test is S. aureus ATCC 6538. The following applies: time point 60 seconds. The protocol: (§1) Example 1: A Microorganism Efficacy Test for Step One using Hypochlorous acid was tested against a range of different germs and bacteria to determine its efficacy. The hypochlorous acid was added to cultures of the listed microorganisms and left for the indicated amount of time. The percent reduction of each microorganism was measured after the time period had elapsed and the results are shown below in Table 1.

In a further test the test system is E. Coli ATCC 8739. Conditions: time point 60 seconds. As for the experimental part: as §1
In test [1] the test system is Proteus mirabilis ATCC7002. Conditions: time point 15 seconds. The protocol: as §1
The subject of test [2] is A brasiliensis ATCC 16404. The following applies: time point 60 seconds. As for the experimental part: as §1
The test system of test [3] is Propionibacterium Acnes ATCC 6919. The following applies: time point 60 seconds. As for the experimental part: as §1
In another test the test system is C Difficile ATCC 43598. The following applies: time point 60 seconds. The protocol: as §1
Test [4] has as its system Pseudomonas aeruginosa ATCC 9027. Conditions: time point 60 seconds. As for the experimental part: as §1
Test [5] has as its system Listeria Monocytogens ATCC 15313. The following applies: time point 60 seconds. The protocol:
as §1

Test [6] relates to Enterococcus faecalis (VRE) ATCC 51299. Conditions: time point 15 seconds. As for the experimental part:
as §1

In test [7] the test system is Staphylococcus arureus (MRSA) ATCC 33592. Conditions: time point 15 seconds. The protocol:
as §1

In test [8] the test system is Acinetobacter baumannii ATCC 19606. Conditions: time point 15 seconds. The protocol:
as §1

Test [9] concerns Candida albicans ATCC 1023. The following applies: time point 60 seconds. As for the experimental part:
as §1

Test [10] deals with K. pneumonia (CRE) ATCC BAA-2146. The following applies: time point 60 seconds. The protocol:
as §1

Test [11] deals with Serratia marscesens ATCC 14756. The following applies: time point 15 seconds. As for the experimental part: as §1

Each structure is given as a SMILES string. A value given as a limit tells only on which side of the number the result lay.

Regarding `OCl` [Hypochlorous acid], the “% REDUCTION” value in the test on S. aureus ATCC 6538 was more than 99.999%; with E. Coli ATCC 8739, more than 99.999%; in [1], more than 99.999%; in test [2], more than 99.999%; in [3], more than 99.99%; in the test on C Difficile ATCC 43598, more than 100%. In addition, the “% REDUCTION” value in [4] is more than 99.999%; in test [5], more than 99.96%; in test [6], 100%; in [7], more than 99.999%; in test [8], 100%; in test [9], more than 99.9999%. The results for the “% REDUCTION” value in test [10] and in [11] were more than 99.9994% and more than 99.999%, respectively.
